From patent publication US20150329558A1, “FUSED HETEROCYCLIC COMPOUNDS AS ION CHANNEL MODULATORS” (Gilead Sciences, Inc., priority 2011, published 2015)

Tests used:
[1] = Microsomal stability assay, rat; type: in vitro ADME; conditions: metabolic stability, rat liver microsomes 0.5 mg/mL, substrate 3 uM
Method in brief: (§1)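 Liver microsomes at 0.5 mg/mL protein in 100 mM KPO4 buffer, incubated with 3 uM compound and NADPH-regenerating system, run in duplicate. Samples taken at 2, 12, 25, 45 and 65 min and quenched in MeOH/ACN/water before analysis.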

[2] = Microsomal stability assay, human; type: in vitro ADME; conditions: metabolic stability, human liver microsomes 0.5 mg/mL, substrate 3 uM
Method in brief: as §1

hNav1.1 = biological target: T1, hNav1.1 (Homo sapiens, UniProt P35498); assay: Nav1.1 use-dependent block, whole-cell voltage clamp; type: cell-based; conditions: use-dependent block 10 Hz, read-out: NAv1.1*-CHAN TEST-UDB-10 HZ-
T1 construct: expressed in transfected cells; host or cells: HEK293, transient transfection (α1:β1:β2 = 10:1:1)

Human Nav1.2 = biological target: T2, Human Nav1.2 (Homo sapiens, UniProt Q99250); assay: Nav1.2 use-dependent block, whole-cell voltage clamp; type: cell-based; conditions: use-dependent block 10 Hz, read-out: NAv1.2*-CHAN TEST-UDB-10 HZ-
T2 construct: expressed in transfected cells
T2 sequence (Q99250 whole entry): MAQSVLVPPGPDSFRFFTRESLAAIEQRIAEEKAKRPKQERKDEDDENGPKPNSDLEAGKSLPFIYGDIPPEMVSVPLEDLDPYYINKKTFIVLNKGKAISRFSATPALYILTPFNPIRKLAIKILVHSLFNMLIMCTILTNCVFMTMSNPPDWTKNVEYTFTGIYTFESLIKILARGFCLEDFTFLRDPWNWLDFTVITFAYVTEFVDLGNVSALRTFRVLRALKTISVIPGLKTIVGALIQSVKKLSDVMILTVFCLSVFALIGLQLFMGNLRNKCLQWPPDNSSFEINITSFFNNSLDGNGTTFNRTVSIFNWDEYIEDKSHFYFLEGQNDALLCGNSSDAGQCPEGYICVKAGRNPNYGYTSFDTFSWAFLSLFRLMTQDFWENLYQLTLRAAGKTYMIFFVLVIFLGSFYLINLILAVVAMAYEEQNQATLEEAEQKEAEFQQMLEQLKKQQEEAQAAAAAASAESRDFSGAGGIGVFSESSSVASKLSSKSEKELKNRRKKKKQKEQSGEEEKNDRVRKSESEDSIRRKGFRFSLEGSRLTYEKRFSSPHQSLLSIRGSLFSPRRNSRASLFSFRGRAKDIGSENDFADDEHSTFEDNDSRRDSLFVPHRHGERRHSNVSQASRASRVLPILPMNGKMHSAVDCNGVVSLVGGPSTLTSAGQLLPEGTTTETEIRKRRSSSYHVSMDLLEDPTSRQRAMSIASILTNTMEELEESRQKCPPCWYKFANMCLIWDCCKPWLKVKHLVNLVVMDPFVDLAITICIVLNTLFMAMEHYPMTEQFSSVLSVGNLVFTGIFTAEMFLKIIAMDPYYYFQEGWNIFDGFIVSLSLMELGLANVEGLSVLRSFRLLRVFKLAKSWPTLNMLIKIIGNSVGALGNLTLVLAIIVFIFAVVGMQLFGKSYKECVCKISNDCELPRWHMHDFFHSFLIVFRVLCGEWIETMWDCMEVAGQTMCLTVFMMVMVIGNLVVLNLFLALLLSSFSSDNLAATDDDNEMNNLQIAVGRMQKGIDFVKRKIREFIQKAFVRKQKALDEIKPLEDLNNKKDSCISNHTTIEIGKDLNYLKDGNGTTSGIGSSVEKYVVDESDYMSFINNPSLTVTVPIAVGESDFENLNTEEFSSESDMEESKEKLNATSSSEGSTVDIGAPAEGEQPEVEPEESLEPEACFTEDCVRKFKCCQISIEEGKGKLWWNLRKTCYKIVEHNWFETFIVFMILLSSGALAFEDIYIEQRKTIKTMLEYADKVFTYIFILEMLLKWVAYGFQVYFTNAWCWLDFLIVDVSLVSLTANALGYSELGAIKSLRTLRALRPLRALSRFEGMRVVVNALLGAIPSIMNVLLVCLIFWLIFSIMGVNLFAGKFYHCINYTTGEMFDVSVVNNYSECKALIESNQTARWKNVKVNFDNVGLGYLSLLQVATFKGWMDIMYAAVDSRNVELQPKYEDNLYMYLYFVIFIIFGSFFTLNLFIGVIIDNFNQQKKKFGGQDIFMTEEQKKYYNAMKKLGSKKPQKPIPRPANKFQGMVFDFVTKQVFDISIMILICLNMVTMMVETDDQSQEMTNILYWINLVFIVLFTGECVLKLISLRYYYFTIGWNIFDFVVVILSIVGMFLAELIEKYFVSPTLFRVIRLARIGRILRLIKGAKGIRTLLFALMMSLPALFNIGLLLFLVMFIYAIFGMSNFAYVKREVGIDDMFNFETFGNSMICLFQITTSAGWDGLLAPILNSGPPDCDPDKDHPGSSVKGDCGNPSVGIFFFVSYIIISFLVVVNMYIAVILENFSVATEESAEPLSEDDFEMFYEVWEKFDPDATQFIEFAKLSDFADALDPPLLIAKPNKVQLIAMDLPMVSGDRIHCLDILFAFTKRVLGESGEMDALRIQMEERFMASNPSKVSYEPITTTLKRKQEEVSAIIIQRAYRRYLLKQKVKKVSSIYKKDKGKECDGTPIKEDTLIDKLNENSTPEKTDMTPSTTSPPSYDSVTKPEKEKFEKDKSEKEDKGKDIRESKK
From the text: Wild-type (WT) cDNA stably transfected in Chinese hamster ovary (CHO) cells is used to record INa. Unless otherwise noted, all reagents are purchased from Sigma-Aldrich (St Louis, Mo., U.S.A.).
Whole-cell voltage-clamp recordings are used to measure the biophysical properties of WT. Briefly, the pipette solution consists of (in mM) 110 CsF, 10 NaF, 20 CsCl, 2 EGTA, 10 HEPES, with a pH of 7.35 and osmolarity of 300 mOsmol/kg. The bath (control) solution contains in (mM): 145 NaCl, 4 KCl, 1.8 CaCl2, 1 MgCl2, 10 dextrose, 10 HEPES, with a pH of 7.35 and osmolarity of 310 mOsmol/kg. Cells are allowed to stabilize for 10 min after establishment of the whole-cell configuration before current is measured. Series resistance is compensated 90% to assure that the command potential is reached within microseconds with a voltage error <2 mV. Leak currents are subtracted by using an online P/4 procedure and all currents are low-pass Bessel filtered at 5 kHz and digitized at 50 kHz.
Tonic block of peak current is measured using a step to −10 mV (20 ms) from a holding potential of −120 mV (0.2 Hz). Use-dependent block of peak current is measured during pulse number 300 of a pulse train (−10 mV, 5 ms, 300 pulses, 10 Hz or 25 Hz) from a holding potential of −120 mV. Two sequential pulse train stimulations are averaged to obtain mean current traces for each recording condition, which are then used for offline subtraction and analysis.
For use-dependent studies, cells are stimulated with depolarizing pulse trains (−10 mV, 5 ms, 300 pulses, 10 and 25 Hz) from a holding potential of −120 mV. Currents are then normalized to the peak current recorded in response to the first pulse in each frequency train. For tonic block studies, peak current is evaluated in response to a 20 ms depolarization to −10 mV (0.2 Hz). Data analysis is performed using Clampfit 9.2 (Axon Instruments, Union City, Calif., U.S.A), Excel 2002 (Microsoft, Seattle, Wash., U.S.A.), and OriginPro 7.0 (OriginLab, Northampton, Mass., U.S.A) software. Results are presented as mean±SEM.
A stock solution of 10 mM compound of Formula I is prepared in 0.1 M HCl or DMSO. A fresh dilution of the compound of Formula I in the bath solution is prepared every experimental day and the pH is readjusted to 7.35 as necessary. The final DMSO concentration was kept at 0.1% in all solutions. Direct application of the perfusion solution to the clamped cell is achieved using the Perfusion Pencil system (Automate, Berkeley, Calif.). Direct cell perfusion is driven by gravity at a flow rate of 350 μL/min using a 250 micron tip. This system sequesters the clamped cell within a perfusion stream and enables complete solution exchange within 1 second. The clamped cell is perfused continuously starting immediately after establishing the whole-cell configuration. Control currents are measured during control solution perfusion.
Solutions are perfused for three minutes prior to current recordings to allow equilibrium (tonic) drug block. Tonic block of peak currents is measured from this steady-state condition. Three sequential current traces are averaged to obtain a mean current for each recording. The mean current traces are utilized for offline analysis. Use-dependent block of peak current is measured during pulse number 300 of the pulse train, (−10 mV, 5 ms, 300 pulses, 10 Hz) from a holding potential of −120 mV. Two sequential pulse train stimulations are averaged to obtain mean current traces for each recording condition, which are then used for offline subtraction and analysis. Where appropriate, concentration inhibition curves are fit with the Hill equation: I/Imax=1/[1+10̂(log IC50−I)*k], where IC50 is the concentration that produces half inhibition and k is the Hill slope factor.

| Compound | MS Rat THalf [1] [min] | MS Human THalf [2] [min] | inhibition at 1 µM (hNav1.1) [%] | inhibition at 1 µM (Human Nav1.2) [%] |
| --- | --- | --- | --- | --- |
| N#Cc1ccnc(OCCn2nnc3ccc(-c4ccc(OC(F)(F)F)cc4)cc3c2=O)n1 [II-36, 2-(2-(4-oxo-6-(4-(trifluoromethoxy)phenyl)benzo[d][1,2,3]triazin-3(4H)-yl)ethoxy)pyrimidine-4-carbonitrile] | 108 | 157 | 7.9 | 10.9 |
| Cc1ncc(Cn2nnc3ccc(-c4ccc(OC(F)(F)F)cc4)cc3c2=O)o1 [II-95, 3-((2-methyloxazol-5-yl)methyl)-6-(4-(trifluoromethoxy)phenyl)benzo[d][1,2,3]triazin-4(3H)-one] | 121 | 280 | -0.5 | -8.2 |
| Cc1nc(Cn2cnc3ccc(-c4ccc(OC(F)(F)F)cc4)cc3c2=O)no1 [IV-9, 3-((5-methyl-1,2,4-oxadiazol-3-yl)methyl)-6-(4-(trifluoromethoxy)phenyl)quinazolin-4(3H)-one] | 243 | > 395 | -6.5 | 8 |
| O=c1c2cc(-c3ccc(OC(F)(F)F)cc3)ccc2nnn1CCOc1ncccn1 [II-32, 3-(2-(pyrimidin-2-yloxy)ethyl)-6-(4-(trifluoromethoxy)phenyl)benzo[d][1,2,3]triazin-4(3H)-one] | 237 | 392 | 21 | 16.9 |
| Cc1noc(Cn2cnc3ccc(-c4ccc(OC(F)(F)F)cc4)cc3c2=O)n1 [IV-6, 3-((3-methyl-1,2,4-oxadiazol-5-yl)methyl)-6-(4-(trifluoromethoxy)phenyl)quinazolin-4(3H)-one] | 190 | 280 | 3.1 | 7.1 |
| O=c1c2cc(-c3ccc(OC(F)(F)F)cc3)ccc2cnn1CCOc1ncccn1 [III-28, 2-(2-(pyrimidin-2-yloxy)ethyl)-7-(4-(trifluoromethoxy)phenyl)phthalazin-1 (2H)-one] | 103 | 170 | 40.5 | 28.8 |
| O=c1c2cc(-c3ccc(OC(F)(F)F)cc3)ccc2nnn1Cc1nnc(C2CC2)o1 [II-67, 3-((5-cyclopropyl-1,3,4-oxadiazol-2-yl)methyl)-6-(4-(trifluoromethoxy)phenyl)benzo[d][1,2,3]triazin-4(3H)-one] | > 395 | > 395 | – | – |
| COc1cc(OC)nc(Cn2ncc3ccc(-c4ccc(OC(F)(F)F)cc4)cc3c2=O)n1 [III-19, 2-((4,6-dimethoxypyrimidin-2-yl)methyl)-7-(4-(trifluoromethoxy)phenyl)phthalazin-1 (2H)-one] | 72 | 130 | 19.3 | -6 |
| O=c1c2cc(-c3ccc(OC(F)(F)F)cc3)ccc2nnn1CCc1ccncn1 [II-17, 3-(2-(pyrimidin-4-yl)ethyl)-6-(4-(trifluoromethoxy)phenyl)benzo[d][1,2,3]triazin-4(3H)-one] | 24 | 101 | – | – |
| O=c1c2cc(-c3ccc(OC(F)(F)F)cc3)ccc2nnn1CCc1ncccn1 [II-18, 3-(2-(pyrimidin-2-yl)ethyl)-6-(4-(trifluoromethoxy)phenyl)benzo[d][1,2,3]triazin-4(3H)-one] | 49 | 130 | – | – |
| O=c1c2cc(-c3ccc(OC(F)(F)F)cc3)ccc2cnn1Cc1ncccn1 [III-5, 2-(pyrimidin-2-ylmethyl)-7-(4-(trifluoromethoxy)phenyl)phthalazin-1(2H)-one] | 56 | 30 | 9.3 | 5.5 |
| O=c1c2cc(-c3ccc(OC(F)(F)F)cc3)ccc2cnn1CCn1cccn1 [III-9, 2-(2-(1H-pyrazol-1-yl)ethyl)-7-(4-(trifluoromethoxy)phenyl)phthalazin-1(2H)-one] | 81 | 100 | 7.1 | 3.5 |
| O=c1c2cc(-c3ccc(OC(F)(F)F)cc3)ccc2nnn1C1CCNCC1 [II-38, 3-(piperidin-4-yl)-6-(4-(trifluoromethoxy)phenyl)benzo[d][1,2,3]triazin-4(3H)-one] | 298 | > 395 | -1 | 8 |
| O=c1c2cc(-c3ccc(OC(F)(F)F)cc3)ccc2nnn1CC1(CN2CCOCC2)CC1 [II-40, 3-((1-(morpholinomethyl)cyclopropyl)methyl)-6-(4-(trifluoromethoxy)phenyl)benzo[d][1,2,3]triazin-4(3H)-one] | 2 | 2 | – | – |

Now from value to molecule:

| MS Rat THalf [1] [min] | MS Human THalf [2] [min] | inhibition at 1 µM (hNav1.1) [%] | inhibition at 1 µM (Human Nav1.2) [%] | Compound |
| --- | --- | --- | --- | --- |
| 302 | 257 | 1.5 | 10.4 | O=C(c1cccnn1)N1CCc2ccc(-c3ccc(C(F)(F)F)cc3)cc2C1 [IX-17, Pyridazin-3-yl(7-(4-(trifluoromethyl)phenyl)-3,4-dihydroisoquinolin-2 (1H)-yl) methanone] |
| 227 | 285 | 3.1 | 11.7 | O=C1c2cc(-c3ccc(OC(F)(F)F)cc3)ccc2OCN1Cc1ccccn1 [VIII-3, 3-(pyridin-2-ylmethyl)-6-(4-(trifluoromethoxy)phenyl)-2H-benzo[e][1,3]oxazin-4(3H)-one] |
| 355 | 304 | 2.9 | -4.1 | O=C1c2cc(-c3ccc(C(F)(F)F)cc3)ccc2CCN1Cc1ncccn1 [IX-3, 2-(pyrimidin-2-ylmethyl)-7-(4-(trifluoromethyl)phenyl)-3,4-dihydroisoquinolin-1(2H)-one] |
| 211 | 125 | 4.4 | 16 | O=C1c2cc(-c3ccc(C(F)(F)F)cc3)ccc2OCN1Cc1ccccn1 [VIII-1, 3-(pyridin-2-ylmethyl)-6-(4-(trifluoromethyl)phenyl)-2H-benzo[e][1,3]oxazin-4(3H)-one] |
| > 395 | > 395 | 2.02 | 8.62 | O=C(c1ncccn1)N1CCc2ccc(-c3ccc(C(F)(F)F)cc3)cc2C1 [IX-7, pyrimidin-2-yl(7-(4-(trifluoromethyl)phenyl)-3,4-dihydroisoquinolin-2(1H)-yl)methanone] |
| – | – | 11 | 17.6 | O=C1c2cc(-c3ccc(OC(F)(F)F)cc3)ccc2OCN1Cc1ncccn1 [VIII-20, 3-(pyrimidin-2-ylmethyl)-6-(4-(trifluoromethoxy)phenyl)-2H-benzo[e][1,3]oxazin-4(3H)-one] |
| 176 | 329 | – | – | O=c1c2cc(-c3ccc(OC(F)(F)F)cc3)ccc2nnn1Cc1noc(-c2ccccn2)n1 [II-54, 3-((5-(pyridin-2-yl)-1,2,4-oxadiazol-3-yl)methyl)-6-(4-(trifluoromethoxy)phenyl)benzo[d][1,2,3]triazin-4(3H)-one] |
